One test has as its target T1, isolated wild type TTR (Homo sapiens, UniProt P02766).
T1 construct: the non-covalently associated protomers, of mass 13,761, each contain 127 residues; His6 (N); TEV cleavage site (N); made in house; host or cells: E. coli BL21 (DE3)
Kind of test: Displacement of 125I-T4 from isolated wild type TTR in buffer. The settings on record: concentration of ligand reducing binding of 125I-T4 by TTR by 50%, 125 nM TTR, pH 8.0, overnight 4° C., mean of at least 3 replicates; for IC50: read-out: D50 buffer. On the procedure: 3. Evaluation of Ligand Activity Based on Capacity to Displace ^125I-Thyroxine (T4) from TTR in Buffer/Human Plasma 3.1 Displacement of ^125I-T4 from Isolated Wild Type TR.
Competition of ligands with T4 for binding by TTR was assayed quantitatively by a previously described procedure (Kolstoe et al., 2010). Briefly, a solution of 125 nM TTR in 0.1 M Tris-HCl, 0.1 M NaCl and 0.001 M EDTA buffer, pH 8.0, was incubated overnight at 4° C. in the presence of 1.07 nM ^125I T4 (1,200 μCi/μg, 200 μCi/ml, Perkin Elmer) and increasing concentrations of inhibitor (0-5 μM) in 40 μl final volume. ^125I T4 bound by TTR was separated from unbound T4 by gel filtration chromatography using Micro Bio Spin 6 columns (Bio-Rad) previously equilibrated with the reaction buffer containing 1% w/v BSA. After counting with a Wizard2 gamma counter (Perkin-Elmer) for 60 s, percentage binding was plotted against the logarithm of the inhibitor concentration, and D50 (concentration of ligand reducing the binding of T4 by TTR by 50%) was determined using a four parameters dose-response curve with GraphPad Prism 5 (Table 1).
Background: Displacement assays read how much labelled ligand stays bound in the presence of the test substance.

Test [1] concerns the target T2, TTR in whole human plasma (Homo sapiens, UniProt P02766).
T2 construct: TTR in whole plasma, from individuals homozygous for wild type TTR; from tissue; host or cells: whole human plasma
The experiment in a line: Displacement of 125I-T4 from TTR in normal human plasma. In kind it is binding. The settings on record: wild type TTR, 30 min 37° C. with ligand, immunoprecipitation, mean of at least 3 replicates; for IC50: read-out: D50 plasma. On the procedure:
3.2 Displacement of ^125-T4 from TTR in Normal Human Plasma.
The displacement of ^125I-T4 from TTR in whole plasma, from individuals homozygous for wild type TTR, was studied by incubating plasma with each ligand at increasing concentrations for 30 min at 37° C., further incubation with […] followed by measurement of the radioactivity in the immunoprecipitate obtained with anti-TTR antibodies. […] Percentage binding was plotted against the logarithm of the inhibitor concentration, and D50 (concentration of ligand reducing the binding of T4 by TTR by 50%) was determined using a four parameter dose-response curve with GraphPad Prism 5 (Table 1).

Test [2] deals with T3, recombinant Val122Ile TTR (Homo sapiens, UniProt P02766, V142I).
T3 construct: the non-covalently associated protomers, of mass 13,761, each contain 127 residues; His6 (N); TEV cleavage site (N); made in house; host or cells: E. coli BL21 (DE3)
Kind of test: Mechano-enzymatic fibrillogenesis, TTR aggregation by turbidity at 400 nm. The format is biochemical. The settings on record: equimolar ligand, Val122Ile TTR 9 μM, trypsin, 96 h, 100 % = protein without ligand, mean (SD). On the procedure:
(§1) Briefly, fibrillogenesis of recombinant Val122Ile TTR at 0.5 mg/ml (9 μM) in PBS, pH 7.4 was carried out in glass vials stirred at 1,400 rpm (IKA magnetic stirrer) and 37° C. in the presence and in the absence of trypsin (5 ng/μl). […] Each ligand was tested at 4 different concentrations (4.5, 9, 18, 36 μM respectively) corresponding to the following drug/TTR molar ratios of 0.5:1, 1:1, 2:1 and 4:1. Several dilutions of the drug stock solutions were made in order to add the same volume of DMSO to each sample. Control samples without drug were added with the same volume of DMSO only. To allow complete binding of ligand by TTR each sample was incubated for 30 min at 37° C. before addition of trypsin. Spectrophotometric turbidity at 400 nm was used to monitor fibril formation over time until it reached a plateau at 96 h. Aggregation of TTR in the presence of equimolar ligand concentrations was quantified as spectrophotometric turbidity at 400 nm as a proportion of 100% for aggregation of the protein in the absence of ligands (Table 2).

The target in test [3] is T3, recombinant Val122Ile TTR. Kind of test: Mechano-enzymatic fibrillogenesis, TTR amyloid by ThT emission fluorescence. The format is biochemical. The settings on record: equimolar ligand, 96 h pellets, normalized to 100 % without ligand, mean (SD). As to the method:
as §1
At the end of the 96 h aggregation, pellets were harvested from each protein sample by 20 min centrifugation at 11,600 g, thoroughly rinsed with PBS to remove non-bound ligand, resuspended with 100 μl PBS, pH 7.4 containing 10 μM ThT in Costar 96-well black-wall plates. Bottom fluorescence values (excitation 440 nm, emission 480 nm) were recorded using a BMG LABTECH FLUostar Omega plate reader. Each value was normalized to the ThT signal of the TTR sample without ligand (Table 2)

As for `O=C(O)CCc1cc(Cl)c(OCCOCCCOc2c(Cl)cc(-c3nc4ccc(C(=O)O)cc4o3)cc2Cl)c(Cl)c1` [Compound B29, 2-[4-[3-[2-[4-(2-carboxyethyl)-2,6-dichloro-phenoxy]ethoxy]propoxy]-3,5-dichloro-phenyl]-1,3-benzoxazole-6-carboxylic acid], the IC50 at isolated wild type TTR amounted to 80 nM; in test [1] it was 3600 nM. In test [2], the “% Aggregation (Turbidity method)” value is 7.62 (3.39) %. The “% Aggregation (Fluorescence method)” value in test [3] was 19.2 (13.0) %.

`Cc1n[nH]c(COCCCCOCCOc2c(Cl)cc(CCC(=O)O)cc2Cl)c1CCCOc1cc(C(=O)O)ccc1F` [Compound B10, 3-[3-[5-[4-[2-[4-(2-carboxyethyl)-2,6-dichloro-phenoxy]ethoxy]butoxymethyl]-3-methyl-1H-pyrazol-4-yl]propoxy]-4-fluoro-benzoic acid]: the IC50 on isolated wild type TTR is 5600 nM. The D50 plasma entry in test [1] is recorded as “no binding”. In addition, the “% Aggregation (Turbidity method)” value in test [2] is on record as 14.88 (nd) %. The “% Aggregation (Fluorescence method)” value in test [3] is listed as 16.6 (nd) %.

As to `Cc1n[nH]c(COCCOCCCOc2c(Cl)cc(CCC(=O)O)cc2Cl)c1CCCOc1cc(C(=O)O)ccc1F` [Compound B11, 3-[3-[5-[2-[3-[4-(2-carboxyethyl)-2,6-dichloro-phenoxy]propoxy]ethoxymethyl]-3-methyl-1H-pyrazol-4-yl]propoxy]-4-fluoro-benzoic acid], the IC50 at isolated wild type TTR was 500 nM. Also, the D50 plasma result in test [1] is listed as “no binding”.

On to `O=C(O)CCc1cc(Cl)c(OCCCOCCOc2c(Cl)cc(-c3nc4ccc(C(=O)O)cc4o3)cc2Cl)c(Cl)c1` [Compound B28, 2-[4-[2-[3-[4-(2-carboxyethyl)-2,6-dichloro-phenoxy]propoxy]ethoxy]-3,5-dichloro-phenyl]-1,3-benzoxazole-6-carboxylic acid], for which the IC50 at isolated wild type TTR worked out at 80 nM; in test [1] it was 20000 nM. Also, in test [2], the “% Aggregation (Turbidity method)” value is listed as 9.30 (4.32) %. Also, the “% Aggregation (Fluorescence method)” value in test [3] is on record as 24.5 (8.90) %.

In the case of `O=C(O)CCc1ccc(OCC[C@@H](O)[C@H](O)CCOc2ccc(Nc3ccccc3C(=O)O)cc2Cl)c(Cl)c1` [Compound B22, 2-[4-[(3R,4R)-6-[4-(2-carboxyethyl)-2-chloro-phenoxy]-3,4-dihydroxy-hexoxy]-3-chloro-anilino]benzoic acid], the IC50 at isolated wild type TTR amounted to 70 nM; in test [1] it was 6400 nM. Further, the “% Aggregation (Turbidity method)” value in test [2] is given as 6.43 (2.12) %. In addition, the “% Aggregation (Fluorescence method)” value in test [3] was 15.5 (3.25) %.

With `O=C(O)COCCOCCOCCOc1c(Cl)cc(Nc2ccccc2C(=O)O)cc1Cl` [Compound B5, 2-[4-[2-[2-[2-(carboxymethoxy)ethoxy]ethoxy]ethoxy]-3,5-dichloro-anilino]benzoic acid], the values for the IC50 (on isolated wild type TTR; in test [1]) were 4600 nM and 66400 nM, respectively. Further, in test [2], the “% Aggregation (Turbidity method)” value is 17.3 (14.8) %. The “% Aggregation (Fluorescence method)” value in test [3] is 28.8 (13.4) %.

With `O=C(O)CCc1ccc(OCCCOCCCOc2ccc(-c3nc4ccc(C(=O)O)cc4o3)cc2Cl)c(Cl)c1` [Compound B18, 2-[4-[3-[3-[4-(2-carboxyethyl)-2-chloro-phenoxy]propoxy]propoxy]-3-chloro-phenyl]-1,3-benzoxazole-6-carboxylic acid], the IC50 at isolated wild type TTR is 210 nM; in test [1] it was greater than 100000 nM. The “% Aggregation (Turbidity method)” value in test [2] is recorded as 3.31 (0.68) %. For the same compound, the “% Aggregation (Fluorescence method)” value in test [3] is listed as 2.45 (1.39) %.

As to `O=C(O)CCc1ccc(OCCCOCCCOc2c(Cl)cc(-c3nc4ccc(C(=O)O)cc4o3)cc2Cl)c(Cl)c1` [Compound B19, 2-[4-[3-[3-[4-(2-carboxyethyl)-2-chloro-phenoxy]propoxy]propoxy]-3,5-dichloro-phenyl]-1,3-benzoxazole-6-carboxylic acid], the IC50 was 160 nM on isolated wild type TTR and greater than 100000 nM in test [1]. Moreover, the “% Aggregation (Turbidity method)” value in test [2] was 3.99 (0.928) %. In test [3], the “% Aggregation (Fluorescence method)” value was 7.27 (1.17) %.

As to `O=C(O)CCc1cc(Cl)c(OCC[C@@H](O)[C@H](O)CCOc2c(Cl)cc(Nc3ccccc3C(=O)O)cc2Cl)c(Cl)c1` [Compound B4A, 2-[4-[(3R,4R)-6-[4-(2-carboxyethyl)-2,6-dichloro-phenoxy]-3,4-dihydroxy-hexoxy]-3,5-dichloro-anilino]benzoicacid], the results for the IC50 (at isolated wild type TTR; in test [1]) were 66 nM and 2300 nM, respectively. For the same compound, in test [2], the “% Aggregation (Turbidity method)” value is 4.99 (0.46) %. For the same compound, the “% Aggregation (Fluorescence method)” value in test [3] is recorded as 3.30 (1.19) %.

Consider `O=C(O)CCc1cc(Cl)c(OCC[C@@H](O)[C@H](O)CCOc2c(Cl)cc(Nc3ncccc3C(=O)O)cc2Cl)c(Cl)c1` [Compound B3, 2-[4-[(3R,4R)-6-[4-(2-carboxyethyl)-2,6-dichloro-phenoxy]-3,4-dihydroxy-hexoxy]-3,5-dichloro-anilino]pyridine-3-carboxylic acid], for which the IC50 at isolated wild type TTR came to 70 nM; in test [1], 1700 nM. Moreover, the “% Aggregation (Turbidity method)” value in test [2] (listed as T-663 (B3)) is 5.11 (1.58) %. In test [3] (listed as T-663 (B3)), the “% Aggregation (Fluorescence method)” value is listed as 4.49 (2.08) %.

Turning to `O=C(O)CCc1cc(Cl)c(OCC[C@H](O)[C@@H](O)CCOc2c(Cl)cc(Nc3ncccc3C(=O)O)cc2Cl)c(Cl)c1` (stereo in doubt) [Compound B3A, 2-[4-[(3S,4S)-6-[4-(2-carboxyethyl)-2,6-dichloro-phenoxy]-3,4-dihydroxy-hexoxy]-3,5-dichloro-anilino]pyridine-3-carboxylicacid], the “% Aggregation (Turbidity method)” value in test [2] is given as 5.76 (2.32) %. Further, the “% Aggregation (Fluorescence method)” value in test [3] is given as 8.63 (5.17) %.

Take `O=C(O)Cc1cc(Cl)c(OCCCOCCOc2c(Cl)cc(CC(=O)O)cc2Cl)c(Cl)c1` [Compound B33, reference compound]: the D50 buffer result on isolated wild type TTR is recorded as “No binding”. The “% Aggregation (Fluorescence method)” value in test [3] is 75 (30) %.

`O=C(O)CCc1cc(Cl)c(OCC/C=C/CCOc2c(Cl)cc(Nc3ccccc3C(=O)O)cc2Cl)c(Cl)c1` [Compound B14, 2-[4-[(E)-6-[4-(2-carboxyethyl)-2,6-dichloro-phenoxy]hex-3-enoxy]-3,5-dichloro-anilino]benzoic acid]: the “% Aggregation (Turbidity method)” value in test [2] is 5.73 (0.50) %. The “% Aggregation (Fluorescence method)” value in test [3] is recorded as 12.6 (3.17) %.

With `O=C(O)CCc1cc(Cl)c(OCC/C=C/CCOc2c(Cl)cc(Nc3ncccc3C(=O)O)cc2Cl)c(Cl)c1` [Compound B13, (E)-2-((4-((6-(4-(2-carboxyethyl)-2,6-dichlorophenoxy)hex-3-en-1-yl)oxy)-3,5-dichlorophenyl)amino)nicotinic acid], in test [2], the “% Aggregation (Turbidity method)” value is on record as 5.31 (0.62) %. The “% Aggregation (Fluorescence method)” value in test [3] is 9.76 (4.50) %.
